Laboratory results taken from paper PMC11031295 (ChemMedChem, 2024).
pEC50: −log10 of the molar value. “Also recorded” adds a separate entry of the source.

What was measured:
[1] = biological target: T1, ERCC1/XPA protein-protein interaction (MBP-ERCC1 central domain / fluorescein-labeled XPA67-80 peptide) (Homo sapiens, UniProt P07992); test: Fluorescence polarization; assay type: binding
T1 sequence (P07992 96-214): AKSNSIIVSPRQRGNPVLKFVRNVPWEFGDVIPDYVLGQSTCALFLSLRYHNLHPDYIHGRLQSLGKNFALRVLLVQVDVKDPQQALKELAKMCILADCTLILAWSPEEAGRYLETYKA

[2] = biological target: T2, 15N-labeled human ERCC1 fragment containing residues 96-214 (Homo sapiens, UniProt P07992); test: Backbone chemical shift perturbation mapping by NMR; assay type: binding; conditions: 0.25 mM ERCC1, titration with compound 1, pH 7.5, 28 °C
T2 sequence (P07992 96-214): T1 sequence (P07992 96-214)

[3] = tested on: ERCC1; conditions: binding pocket on ERCC1; cited from earlier work

pEC50 [1] | Molecule | binding site on ERCC1 (in words) [2] | binding affinity to ERCC1 (in words) [3]
4.68 | Cc1cc(C)c(C#N)c(SCC(O)c2cccc([N+](=O)[O-])c2)n1 (stereo not drawn) [Compound 1, 2-[2-hydroxy-2-(3-nitrophenyl)ethyl]sulfanyl-4,6-dimethyl-pyridine-3-carbonitrile] | binds within the same site as the truncated XPA67-80 peptide; also recorded: binds to the same site as the truncated XPA 14-mer; also recorded: binds to the same central domain of ERCC1 as truncated XPA peptides | 
 | 14-mer peptide corresponding to residues 67-80 of XPA: truncated 14-mer peptide corresponding to residues 67-80 of XPA (KIIDTGGGFILEEE; UniProt P23025 67-80, looked up, fragment) |  | sub-micromolar affinity
